Values quoted from earlier work as cited in patent US20230023005A1, “IMPROVING THE PERFORMANCE OF PIGMENT-BASED DYES BY USING A PRETREAMENT AGENT” (Henkel AG & Co. KGaA, priority 2019, published 2023).
Each block holds one molecule with its values, some of them ahead of it.

Tests used:
[1] = 25° C.
[2] = 5% solution in water

Compound: O=S(=O)([O-])c1ccc(N=Nc2c(O)ccc3ccccc23)cc1.[Na+] [Acid Orange 7, sodium salt of 4-[(2-hydroxy-1-naphthyl)azo]benzene sulphonate]
- solubility in water [1]: more than 7 g/L

Compound: Nc1cc(S(=O)(=O)[O-])cc2cc(S(=O)(=O)[O-])c(N=Nc3ccccc3)c(O)c12.[Na+].[Na+] [Acid Red 33, diantrium salt of 5-amino-4-hydroxy-3-(phenylazo)-naphthalene-2,7-disulphonate]
- solubility in water [1]: 2500 µg/mL

Compound: O=C([O-])c1c(Cl)c(Cl)c(Cl)c(Cl)c1-c1c2c(Br)cc(=O)c(Br)c-2oc2c(Br)c(O)cc(Br)c12.O=C([O-])c1c(Cl)c(Cl)c(Cl)c(Cl)c1-c1c2c(Br)cc(=O)c(Br)c-2oc2c(Br)c(O)cc(Br)c12.[Na+].[Na+] [Acid Red 92, disodium salt of 3,4,5,6-tetrachloro-2-(1,4,5,8-tetrabromo-6-hydroxy-3-oxoxanthen-9-yl)benzoic acid]
- solubility in water [1]: greater than 10 g/L

Now from value to molecule:

- solubility in water [1]: highly soluble in water
Compound: O=C([O-])C1=NN(c2ccc(S(=O)(=O)[O-])cc2)C(=O)C1N=Nc1ccc(S(=O)(=O)[O-])cc1.[Na+].[Na+].[Na+] (centres unmarked) [Acid Yellow 23, trisodium salt of 4,5-dihydro-5-oxo-1-(4-sulfophenyl)-4-((4-sulfophenyl)azo)-1H-pyrazole-3-carboxylic acid]

- pH value of solution in water [2]: 4.4
Compound: O=P([O-])(O)O.[K+] [Potassium dihydrogen phosphate]
